Test results published in ChEMBL document CHEMBL1154708, “Identification of a brain penetrant PDE9A inhibitor utilizing prospective design and chemical enablement as a rapid lead optimization strategy” (J Med Chem, 2009).
pIC50: −log10 of the molar value.

Assays:
[1] = target: Dual specificity calcium/calmodulin-dependent 3',5'-cyclic nucleotide phosphodiesterase 1C (Homo sapiens, UniProt Q14123); experiment: Inhibition of human recombinant PDE1C expressed in Sf9 cells by SPA
[2] = target: T1, High affinity cGMP-specific 3',5'-cyclic phosphodiesterase 9A (Homo sapiens, UniProt O76083); experiment: Inhibition of human recombinant PDE9A expressed in Sf9 cells by SPA; details: for pIC50: read-out: IC50
T1 sequence (O76083 whole entry): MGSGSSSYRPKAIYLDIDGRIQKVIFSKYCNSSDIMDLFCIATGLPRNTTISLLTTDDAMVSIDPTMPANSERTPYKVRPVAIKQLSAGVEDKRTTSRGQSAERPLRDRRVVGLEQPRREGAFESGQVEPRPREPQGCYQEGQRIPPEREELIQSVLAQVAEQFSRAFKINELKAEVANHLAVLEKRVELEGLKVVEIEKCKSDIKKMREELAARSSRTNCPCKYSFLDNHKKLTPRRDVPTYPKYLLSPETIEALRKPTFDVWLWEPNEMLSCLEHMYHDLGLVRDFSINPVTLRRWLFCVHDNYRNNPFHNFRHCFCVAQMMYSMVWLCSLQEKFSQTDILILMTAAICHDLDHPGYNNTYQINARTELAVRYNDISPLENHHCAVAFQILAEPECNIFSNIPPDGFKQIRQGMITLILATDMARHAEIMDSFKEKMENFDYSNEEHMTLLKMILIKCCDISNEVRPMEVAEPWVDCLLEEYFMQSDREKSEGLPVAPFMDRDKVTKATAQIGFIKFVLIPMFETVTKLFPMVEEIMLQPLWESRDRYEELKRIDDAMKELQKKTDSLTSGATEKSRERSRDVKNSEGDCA

[3] = target: T1, High affinity cGMP-specific 3',5'-cyclic phosphodiesterase 9A; experiment: Binding affinity to PDE9A
[4] = target: High affinity cAMP-specific and IBMX-insensitive 3',5'-cyclic phosphodiesterase 8B (Homo sapiens, UniProt O95263); experiment: Inhibition of PDE8B
High affinity cAMP-specific and IBMX-insensitive 3',5'-cyclic phosphodiesterase 8B, sequence (O95263 whole entry): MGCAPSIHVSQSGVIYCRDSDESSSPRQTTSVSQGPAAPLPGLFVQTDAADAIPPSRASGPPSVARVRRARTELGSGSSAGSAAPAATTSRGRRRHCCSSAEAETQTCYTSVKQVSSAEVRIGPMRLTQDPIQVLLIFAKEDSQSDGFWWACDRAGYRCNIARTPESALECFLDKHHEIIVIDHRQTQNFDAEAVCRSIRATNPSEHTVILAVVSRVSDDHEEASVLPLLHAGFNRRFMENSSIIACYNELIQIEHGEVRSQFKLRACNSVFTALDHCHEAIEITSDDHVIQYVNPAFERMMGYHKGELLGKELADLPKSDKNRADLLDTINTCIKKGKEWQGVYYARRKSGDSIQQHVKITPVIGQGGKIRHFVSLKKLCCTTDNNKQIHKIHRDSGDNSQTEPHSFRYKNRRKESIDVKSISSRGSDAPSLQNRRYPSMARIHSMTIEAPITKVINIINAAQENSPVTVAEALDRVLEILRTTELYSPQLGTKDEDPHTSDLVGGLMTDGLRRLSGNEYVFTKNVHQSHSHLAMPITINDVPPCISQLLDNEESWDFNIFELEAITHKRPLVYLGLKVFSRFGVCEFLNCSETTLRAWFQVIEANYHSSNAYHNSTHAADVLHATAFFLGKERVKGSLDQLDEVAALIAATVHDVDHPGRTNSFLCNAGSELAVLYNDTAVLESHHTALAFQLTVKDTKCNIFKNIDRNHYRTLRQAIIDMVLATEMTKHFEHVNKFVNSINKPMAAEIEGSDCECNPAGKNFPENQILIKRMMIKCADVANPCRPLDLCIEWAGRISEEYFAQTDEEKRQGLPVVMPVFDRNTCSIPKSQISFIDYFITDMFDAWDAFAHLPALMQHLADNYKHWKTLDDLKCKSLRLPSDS

Mus musculus [5] = experiment: Increase in cGMP level in sc dosed CD1 mouse striatum after 30 mins; type: functional, organism-based
Mus musculus [6] = experiment: Increase in […] level in CD1 mouse striatum at 1 mg/kg, sc after 30 mins; type: functional; details: route subcutaneous
[7] = target: cGMP-specific 3',5'-cyclic phosphodiesterase (Homo sapiens, UniProt O76074); experiment: Inhibition of PDE5
[8] = target: cAMP and cAMP-inhibited cGMP 3',5'-cyclic phosphodiesterase 10A (Homo sapiens, UniProt Q9Y233); experiment: Inhibition of PDE10
[9] = Inhibition of PDE2
[10] = target: cGMP-inhibited 3',5'-cyclic phosphodiesterase 3A (Homo sapiens, UniProt Q14432); experiment: Inhibition of PDE3A
cGMP-inhibited 3',5'-cyclic phosphodiesterase 3A, sequence (Q14432 whole entry): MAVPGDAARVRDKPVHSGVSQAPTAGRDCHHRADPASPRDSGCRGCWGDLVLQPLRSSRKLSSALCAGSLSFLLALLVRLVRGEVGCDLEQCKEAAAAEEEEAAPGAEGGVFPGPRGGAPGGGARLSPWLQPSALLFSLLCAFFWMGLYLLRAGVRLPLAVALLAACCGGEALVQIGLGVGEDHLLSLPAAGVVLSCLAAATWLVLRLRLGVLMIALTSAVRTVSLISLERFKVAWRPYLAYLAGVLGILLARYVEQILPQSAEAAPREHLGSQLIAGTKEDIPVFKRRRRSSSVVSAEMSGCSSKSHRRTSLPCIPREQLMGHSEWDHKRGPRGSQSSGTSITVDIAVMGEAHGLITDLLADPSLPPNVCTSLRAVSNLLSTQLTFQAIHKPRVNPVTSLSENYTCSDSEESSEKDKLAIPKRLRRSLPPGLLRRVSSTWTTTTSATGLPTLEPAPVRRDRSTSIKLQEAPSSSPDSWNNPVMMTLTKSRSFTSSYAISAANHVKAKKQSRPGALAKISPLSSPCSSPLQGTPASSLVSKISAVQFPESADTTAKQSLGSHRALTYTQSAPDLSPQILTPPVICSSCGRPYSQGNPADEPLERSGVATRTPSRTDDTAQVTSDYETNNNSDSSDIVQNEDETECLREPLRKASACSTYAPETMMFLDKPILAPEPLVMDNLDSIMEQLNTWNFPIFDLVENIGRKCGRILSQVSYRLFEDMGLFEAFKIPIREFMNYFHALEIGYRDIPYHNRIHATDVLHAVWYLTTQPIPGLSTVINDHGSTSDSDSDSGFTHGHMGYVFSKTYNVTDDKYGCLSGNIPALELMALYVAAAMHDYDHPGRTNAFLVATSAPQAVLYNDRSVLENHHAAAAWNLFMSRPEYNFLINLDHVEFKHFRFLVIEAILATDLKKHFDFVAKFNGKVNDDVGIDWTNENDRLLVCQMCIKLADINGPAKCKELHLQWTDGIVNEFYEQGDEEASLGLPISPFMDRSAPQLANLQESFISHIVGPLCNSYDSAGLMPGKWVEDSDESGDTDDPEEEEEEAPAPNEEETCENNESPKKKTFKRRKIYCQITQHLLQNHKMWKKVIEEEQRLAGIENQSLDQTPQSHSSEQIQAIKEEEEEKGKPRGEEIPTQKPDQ

Mus musculus [11] = experiment: Increase in cGMP level in CD1 mouse striatum at 3.2 mg/kg, sc after 30 mins; type: functional; details: route subcutaneous
Mus musculus [12] = experiment: Increase in […] level in CD1 mouse striatum at 10 mg/kg, sc after 30 mins; type: functional; details: route subcutaneous
[13] = target: 3',5'-cyclic-AMP phosphodiesterase 4C (Homo sapiens, UniProt Q08493); experiment: Inhibition of PDE4C
3',5'-cyclic-AMP phosphodiesterase 4C, sequence (Q08493 whole entry): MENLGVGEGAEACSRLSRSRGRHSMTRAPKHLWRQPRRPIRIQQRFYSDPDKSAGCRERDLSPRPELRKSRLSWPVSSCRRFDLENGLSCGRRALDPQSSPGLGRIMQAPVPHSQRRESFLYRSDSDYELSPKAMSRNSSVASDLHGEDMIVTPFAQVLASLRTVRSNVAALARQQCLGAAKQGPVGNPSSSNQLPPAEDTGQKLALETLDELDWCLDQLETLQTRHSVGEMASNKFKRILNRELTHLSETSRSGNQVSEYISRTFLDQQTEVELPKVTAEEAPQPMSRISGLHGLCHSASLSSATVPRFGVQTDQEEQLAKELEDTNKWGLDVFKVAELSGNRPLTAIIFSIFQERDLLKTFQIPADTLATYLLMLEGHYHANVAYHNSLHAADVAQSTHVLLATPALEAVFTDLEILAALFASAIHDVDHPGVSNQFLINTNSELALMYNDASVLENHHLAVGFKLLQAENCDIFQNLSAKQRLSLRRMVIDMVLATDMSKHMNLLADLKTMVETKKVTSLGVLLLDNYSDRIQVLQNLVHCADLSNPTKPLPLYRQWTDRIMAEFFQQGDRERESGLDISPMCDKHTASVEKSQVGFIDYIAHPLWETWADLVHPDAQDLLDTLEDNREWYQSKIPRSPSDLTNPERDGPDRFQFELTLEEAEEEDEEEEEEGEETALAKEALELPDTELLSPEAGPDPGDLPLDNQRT

[14] = Ratio of drug level in brain to plasma of rat; type: ADME, cell-free; details: brain and plasma
[15] = target: Dual 3',5'-cyclic-AMP and -GMP phosphodiesterase 11A (Homo sapiens, UniProt Q9HCR9); experiment: Inhibition of PDE11
[16] = target: 3',5'-cyclic-AMP phosphodiesterase 7B (Homo sapiens, UniProt Q9NP56); experiment: Inhibition of PDE7B
3',5'-cyclic-AMP phosphodiesterase 7B, sequence (Q9NP56 whole entry): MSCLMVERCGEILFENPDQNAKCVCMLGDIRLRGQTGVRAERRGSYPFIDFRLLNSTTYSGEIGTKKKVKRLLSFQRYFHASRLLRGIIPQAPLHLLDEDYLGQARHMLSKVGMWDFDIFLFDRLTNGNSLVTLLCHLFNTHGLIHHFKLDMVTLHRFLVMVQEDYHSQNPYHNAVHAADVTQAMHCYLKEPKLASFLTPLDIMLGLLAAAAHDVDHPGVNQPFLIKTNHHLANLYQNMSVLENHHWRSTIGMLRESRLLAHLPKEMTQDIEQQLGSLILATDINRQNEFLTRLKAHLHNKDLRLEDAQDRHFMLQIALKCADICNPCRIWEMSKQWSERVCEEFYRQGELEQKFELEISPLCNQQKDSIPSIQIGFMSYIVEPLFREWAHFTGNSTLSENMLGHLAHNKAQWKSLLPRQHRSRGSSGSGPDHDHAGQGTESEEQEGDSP

[17] = Inhibition of PDE6
Mus musculus [18] = experiment: Increase in […] level in CD1 mouse striatum at 0.32 mg/kg, sc after 30 mins; type: functional; details: route subcutaneous

Dual specificity calcium/calmodulin-dependent 3',5'-cyclic nucleotide phosphodiesterase 1C, sequence (Q14123 whole entry): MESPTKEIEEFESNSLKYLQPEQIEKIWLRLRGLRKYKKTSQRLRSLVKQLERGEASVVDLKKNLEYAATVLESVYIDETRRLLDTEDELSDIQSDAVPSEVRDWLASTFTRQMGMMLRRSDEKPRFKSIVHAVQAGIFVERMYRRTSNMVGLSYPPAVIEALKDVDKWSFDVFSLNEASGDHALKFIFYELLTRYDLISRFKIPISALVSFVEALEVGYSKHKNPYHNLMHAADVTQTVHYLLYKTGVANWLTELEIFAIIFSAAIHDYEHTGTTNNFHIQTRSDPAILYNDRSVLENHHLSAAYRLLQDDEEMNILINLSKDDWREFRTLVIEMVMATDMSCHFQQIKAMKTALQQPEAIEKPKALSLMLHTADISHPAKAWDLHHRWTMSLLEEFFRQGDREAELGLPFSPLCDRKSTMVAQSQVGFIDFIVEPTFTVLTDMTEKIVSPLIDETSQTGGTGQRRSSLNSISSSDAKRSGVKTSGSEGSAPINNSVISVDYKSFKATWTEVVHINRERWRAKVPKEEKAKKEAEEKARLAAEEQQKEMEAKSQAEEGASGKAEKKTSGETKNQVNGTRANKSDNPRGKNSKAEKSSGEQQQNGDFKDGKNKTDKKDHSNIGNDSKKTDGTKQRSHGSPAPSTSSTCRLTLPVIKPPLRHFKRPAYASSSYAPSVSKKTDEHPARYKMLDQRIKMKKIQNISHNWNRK

Cc1cc(CN2C[C@@H](C)[C@H](c3nc4c(cnn4C4CCCC4)c(=O)[nH]3)C2)n(C)n1 (relative stereo)
pIC50 [1]: 6.70 | pIC50 [2]: 7.96

C[C@@H]1CN(Cc2ccccn2)C[C@H]1c1nc2c(cnn2C2CCCC2)c(=O)[nH]1 (relative stereo)
pIC50 [1]: 5.89 | pIC50 [2]: 6.70

C[C@@H]1CN(Cc2ccc(C(F)(F)F)nc2)C[C@H]1c1nc2c(cnn2C2CCCC2)c(=O)[nH]1
pIC50 [1]: 6.72 | pIC50 [2]: 7.80

CC(C)n1ncc2c(=O)[nH]c([C@@H]3CN(Cc4ccccc4)C[C@H]3C)nc21 (relative stereo)
pIC50 [1]: 5.68

Cn1cc(-c2ccncc2)c(-c2ccc(OCc3ccc4ccccc4n3)cc2)n1
Activity [3]: 2.1 nM

Cc1cccc(CN2C[C@@H](C)[C@H](c3nc4c(cnn4C4CCCC4)c(=O)[nH]3)C2)c1 (relative stereo)
pIC50 [1]: 6.25 | pIC50 [2]: 7.40 | IC50 ([2]; read-out: pIC50 (converted)): 38 nM

Cc1cnc(CN2C[C@@H](C)[C@H](c3nc4c(cnn4C4CCCC4)c(=O)[nH]3)C2)cn1 (relative stereo)
pIC50 [1]: 6.68 | pIC50 [2]: 7.82

C[C@@H]1CN(Cc2ccccc2)C[C@H]1c1nc2c(cnn2C2CCCC2)c(=O)[nH]1 (relative stereo)
pIC50 [1]: 6.01 | pIC50 [2]: 7.20

Cc1cc(CN2C[C@@H](C)[C@H](c3nc4c(cnn4C4CCCC4)c(=O)[nH]3)C2)no1 (relative stereo)
pIC50 [1]: 6.96 | pIC50 [2]: 7.96

Cc1ncc(CN2C[C@@H](C)[C@H](c3nc4c(cnn4C4CCCC4)c(=O)[nH]3)C2)cn1 (relative stereo)
pIC50 [1]: 6.40 | pIC50 [2]: 7.96

CC(C)Cn1ncc2c(=O)[nH]c([C@@H]3CN(Cc4ccccc4)C[C@H]3C)nc21 (relative stereo)
pIC50 [1]: 5.82 | pIC50 [2]: 6.82

COc1ccc(CN2C[C@@H](C)[C@H](c3nc4c(cnn4C4CCCC4)c(=O)[nH]3)C2)cn1 (relative stereo)
pIC50 [1]: 6.57 | pIC50 [2]: 7.54

C[C@H]1CN(Cc2ccc3nccnc3c2)C[C@@H]1c1nc2c(cnn2C2CCCC2)c(=O)[nH]1 (relative stereo)
pIC50 [1]: 7.14 | pIC50 [2]: 8.72

C[C@@H]1CN(Cc2cn3ccccc3n2)C[C@H]1c1nc2c(cnn2C2CCCC2)c(=O)[nH]1 (relative stereo)
pIC50 [1]: 6.66 | pIC50 [2]: 7.92

C[C@@H]1CN(Cc2ccc3nccnc3c2)C[C@H]1c1nc2c(cnn2C2CCCC2)c(=O)[nH]1
pIC50 [4]: < 6.00 | Activity (Mus musculus [5]): Dose-dependent effect | Activity (Mus musculus [6]): 119% | pIC50 [7]: 6.46 | pIC50 [8]: < 6.00 | pIC50 [1]: 7.30 | pIC50 [9]: < 6.00 | pIC50 [10]: < 6.00 | Activity (Mus musculus [11]): 145% | pIC50 [2]: 8.74 | Activity (Mus musculus [12]): 215% | pIC50 [13]: < 6.00 | Kp [14]: 1.4 | pIC50 [15]: < 6.00 | pIC50 [16]: < 6.00 | pIC50 [17]: 6.90 | Activity (Mus musculus [18]): 110%
